pEC50, pKd: −log10 of the molar value. Where two headings read alike, the source gives them in different places.

Test [1] deals with T1, human α1B‐adrenoceptor (Homo sapiens, UniProt P35368).
T1 construct: expressed in transfected cells; host or cells: CHO-K1
T1 sequence (P35368 1-520): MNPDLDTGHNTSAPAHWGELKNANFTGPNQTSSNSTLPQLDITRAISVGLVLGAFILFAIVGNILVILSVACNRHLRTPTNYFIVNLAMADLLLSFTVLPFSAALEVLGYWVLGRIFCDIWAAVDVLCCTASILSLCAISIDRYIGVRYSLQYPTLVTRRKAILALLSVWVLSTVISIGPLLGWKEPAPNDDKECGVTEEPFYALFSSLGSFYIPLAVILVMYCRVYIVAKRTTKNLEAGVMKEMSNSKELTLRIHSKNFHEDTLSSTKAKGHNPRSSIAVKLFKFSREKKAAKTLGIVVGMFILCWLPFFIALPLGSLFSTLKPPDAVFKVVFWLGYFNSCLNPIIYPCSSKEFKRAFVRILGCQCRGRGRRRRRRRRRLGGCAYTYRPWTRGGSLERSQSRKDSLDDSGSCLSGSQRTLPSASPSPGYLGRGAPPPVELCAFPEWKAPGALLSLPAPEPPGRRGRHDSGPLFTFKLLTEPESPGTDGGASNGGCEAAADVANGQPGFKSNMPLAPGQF
Briefly: ^3H‐cAMP accumulation, CHO‐α1B cells. In kind it is cell-based. Conditions: CHO‐α1B cells; for cAMP accumulation % forskolin: % forskolin maximum response. In general terms: cAMP levels reflect the balance of adenylyl cyclase and phosphodiesterase activity.

In test [2] the target is T2, human α1D‐adrenoceptor (full length) (Homo sapiens, UniProt P25100).
T2 construct: human α1D‐adrenoceptor (full length) were used; expressed in transfected cells; host or cells: CHO-K1
T2 sequence (P25100 1-572): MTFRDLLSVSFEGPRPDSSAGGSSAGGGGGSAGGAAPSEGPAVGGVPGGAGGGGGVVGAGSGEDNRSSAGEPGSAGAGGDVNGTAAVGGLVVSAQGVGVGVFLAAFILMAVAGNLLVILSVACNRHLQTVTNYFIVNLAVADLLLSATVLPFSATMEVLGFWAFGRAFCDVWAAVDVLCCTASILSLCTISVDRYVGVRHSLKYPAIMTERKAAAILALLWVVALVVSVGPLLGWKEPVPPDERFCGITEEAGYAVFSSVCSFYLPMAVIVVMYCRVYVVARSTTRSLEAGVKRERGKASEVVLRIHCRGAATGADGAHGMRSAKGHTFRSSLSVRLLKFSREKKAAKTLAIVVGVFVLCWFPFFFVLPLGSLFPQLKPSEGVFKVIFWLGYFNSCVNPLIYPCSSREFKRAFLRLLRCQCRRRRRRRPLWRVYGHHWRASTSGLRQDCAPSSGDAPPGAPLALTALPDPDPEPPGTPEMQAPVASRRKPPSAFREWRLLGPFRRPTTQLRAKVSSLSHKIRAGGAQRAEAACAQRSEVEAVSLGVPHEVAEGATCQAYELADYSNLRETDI
Briefly: ERK1/2‐phosphorylation (Surefire Alphascreen), CHO‐α1D cells. It is filed as cell-based. On the technique in general: Alpha assays give light when donor and acceptor beads are brought close together.

The target of test [3] is T1, human α1B‐adrenoceptor. The test is described as follows: Intracellular free calcium mobilization, CHO‐α1B cells. It is filed as cell-based. (In general: Calcium flux is commonly read through the fluorescence of an indicator in the cells.)
Test [4] concerns the target T1, human α1B‐adrenoceptor. Briefly: ERK1/2‐phosphorylation (Surefire Alphascreen), CHO‐α1B cells. In kind it is cell-based.
In test [5] the test system is parental CHO cell line without any transfected receptors. Briefly: Forskolin‐stimulated cAMP accumulation, parent CHO cells without transfected receptors. In kind it is cell-based, Chinese hamster. The settings on record: CHO cells without transfected receptors; in presence of forskolin.
For test [6] the test system is unchanged. Briefly: ERK1/2‐phosphorylation, parent CHO cells without transfected receptors. Conditions: CHO cells without transfected receptors; maximal response as % of PDBu (10μM) response; mean ± s.e.m. In kind it is cell-based, Chinese hamster.
The target of test [7] is T3, human α1A‐adrenoceptor (Homo sapiens, UniProt P35348).
T3 construct: expressed in transfected cells; host or cells: CHO-K1
T3 sequence (P35348 1-466): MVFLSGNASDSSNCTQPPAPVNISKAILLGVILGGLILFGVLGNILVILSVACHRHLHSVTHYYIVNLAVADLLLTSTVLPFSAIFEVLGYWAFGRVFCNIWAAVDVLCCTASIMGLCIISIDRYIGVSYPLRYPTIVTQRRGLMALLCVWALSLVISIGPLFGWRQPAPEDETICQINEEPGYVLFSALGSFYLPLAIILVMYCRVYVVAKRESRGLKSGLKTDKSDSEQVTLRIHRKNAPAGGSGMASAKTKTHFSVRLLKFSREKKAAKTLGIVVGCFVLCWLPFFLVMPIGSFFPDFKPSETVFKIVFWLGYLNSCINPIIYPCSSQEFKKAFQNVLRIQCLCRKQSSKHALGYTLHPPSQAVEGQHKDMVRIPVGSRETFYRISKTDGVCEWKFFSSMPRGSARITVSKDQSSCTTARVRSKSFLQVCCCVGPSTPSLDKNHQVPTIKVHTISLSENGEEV
Briefly: ERK1/2‐phosphorylation (Surefire Alphascreen), CHO‐α1A cells. In kind it is cell-based.

The target of test [8] is T2, human α1D‐adrenoceptor (full length). Briefly: Intracellular free calcium mobilization, CHO‐α1D cells. In kind it is cell-based.
The target of test [9] is T3, human α1A‐adrenoceptor. Briefly: ^3H‐cAMP accumulation, CHO‐α1A cells. In kind it is cell-based. The settings on record: CHO‐α1A cells; for cAMP accumulation % forskolin: % of 10 µM forskolin response.
Test [10] deals with T3, human α1A‐adrenoceptor. The test is described as follows: Intracellular free calcium mobilization, CHO‐α1A cells. In kind it is cell-based.
The target of test [11] is T3, human α1A‐adrenoceptor. The test is described as follows: ^3H‐cAMP accumulation in the presence of 10 μM forskolin, CHO‐α1A cells. In kind it is cell-based.
The target in test [12] is T3, human α1A‐adrenoceptor. Briefly: ^3H‐prazosin whole‐cell radioligand binding, CHO‐α1A cells.
The target in test [13] is T1, human α1B‐adrenoceptor. Briefly: ^3H‐prazosin whole‐cell radioligand binding, CHO‐α1B cells.
In test [14] the target is T2, human α1D‐adrenoceptor (full length). The test is described as follows: ^3H‐prazosin whole‐cell radioligand binding, CHO‐α1D cells.
Test [15] has as its target T1, human α1B‐adrenoceptor. Briefly: ^3H‐cAMP accumulation in the presence of 10 μM forskolin, CHO‐α1B cells. The settings on record: CHO‐α1B cells; in presence of forskolin. It is filed as cell-based.
Where [16] appears, read: CHO‐α1D cells, response at 100 µM ligand (no EC50 given).
The mark [17] stands for this setting: CHO‐α1B cells, maximal response as % of 10 µM ionomycin response.
[18] abbreviates: CHO‐α1B cells, maximal response as % PDBu response, for bi‐phasic responses the initial stimulatory part.
Where [19] appears, read: CHO‐α1A cells, % of 10 µM PDBu, ^a bi‐phasic: initial stimulatory part.
[20] abbreviates: CHO‐α1A cells, maximal response as % of 10 µM ionomycin.

As to `c1ccc2c(c1)OCC(C1=NCCN1)O2` (stereo not drawn) [Idazoxan], the “cAMP accumulation % forskolin” value is 2.4 ± 0.3% at human α1B‐adrenoceptor [1] and 2.6 ± 0.4% at human α1A‐adrenoceptor [9]. Further, in test [2] (setting [16]), the “ERK1/2‐phosphorylation % PDBu at 100 µM” value stood at 2.2 ± 1.3%. The figures for the “Intracellular calcium release % ionomycin” value at human α1B‐adrenoceptor [3] (setting [17]) and on human α1A‐adrenoceptor [10] (setting [20]) were 25.7 ± 3.0% and 25.9 ± 2.1%, respectively. Besides, the “ERK1/2‐phosphorylation % PDBu” value at human α1B‐adrenoceptor [4] (setting [18]) was 31.3 ± 2.2%; on human α1A‐adrenoceptor [7] (setting [19]), 64.9 ± 2.4%. In addition, the “cAMP accumulation (in presence of forskolin) Log EC50” value in test [5] was “No response”. Moreover, in test [6], the “ERK1/2-phosphorylation % PDBu” value is recorded as “No response”. For the same compound, in test [8] (setting [16]), the “Intracellular calcium release % Ionomycin at 100 µM” value is 5.7 ± 0.7%.
For `NC[C@H](O)c1ccc(O)c(O)c1` [Noradrenaline], the “cAMP accumulation % forskolin” value at human α1B‐adrenoceptor [1] is reported as 155.5 ± 7.4%; at human α1A‐adrenoceptor [9], 167.3 ± 13.3%. The “ERK1/2‐phosphorylation % PDBu” value in test [2] (CHO‐α1D cells, maximal response as % of PDBu) was 30.0 ± 5.3%; on human α1B‐adrenoceptor [4] (setting [18]) it was 75.0 ± 8.8%; on human α1A‐adrenoceptor [7] (setting [19]), 84.2 ± 8.4%. The “Intracellular calcium release % ionomycin” value is reported as 62.5 ± 1.2% on human α1B‐adrenoceptor [3] (setting [17]); 26.6 ± 3.6% in [8] (CHO‐α1D cells, maximal response as % of 10 µM ionomycin); 62.2 ± 3.0% at human α1A‐adrenoceptor [10] (setting [20]). In addition, the “cAMP accumulation (in presence of forskolin) Log EC50” value in test [5] is “No response”. In test [6], the “ERK1/2-phosphorylation % PDBu” value was “No response”.
Turning to `CNCC(O)c1ccc(O)cc1` (stereo not drawn) [Synephrine], the “cAMP accumulation % forskolin at 100 µM” value on human α1B‐adrenoceptor [1] (response at 100 µM ligand (no EC50 given)) came out at 23.2 ± 2.5%; on human α1A‐adrenoceptor [9] (response at 100 μM ligand, no EC50 obtained), 25.4 ± 3.4%. The negative logarithm of the EC50 (pEC50) on human α1A‐adrenoceptor [11] was 5.15; on human α1A‐adrenoceptor [7], 6.22; at human α1A‐adrenoceptor [10] it was 6.66. Besides, the “ERK1/2‐phosphorylation % PDBu” value in test [2] is recorded as 14.5 ± 2.8%; on human α1B‐adrenoceptor [4], 95.1 ± 8.7%; at human α1A‐adrenoceptor [7], 87.4 ± 8.6%. Besides, the results for the “Intracellular calcium release % ionomycin” value (on human α1B‐adrenoceptor [3]; in test [8]; on human α1A‐adrenoceptor [10]) were 57.5 ± 1.9%, 16.3 ± 2.9% and 55.4 ± 1.9%, respectively. Besides, the “cAMP accumulation (in presence of forskolin) Log EC50” value in [5] is recorded as “No response”. On human α1A‐adrenoceptor [12], this compound had a pKd of 4.26. Further, the “ERK1/2-phosphorylation % PDBu” value in test [6] was “No response”.
As to `Nc1cc(Cl)c(N=C2NCCN2)c(Cl)c1` [para‐amino‐clonidine], the “cAMP accumulation Log EC50” value at human α1B‐adrenoceptor [1] was −7.48 ± 0.43; at human α1A‐adrenoceptor [9] (5 h), −6.76 ± 0.03. In addition, the figures for the “cAMP accumulation % forskolin” value at human α1B‐adrenoceptor [1] and on human α1A‐adrenoceptor [9] were 2.5 ± 0.6% and 26.6 ± 3.2%, respectively. The “cAMP accumulation (in presence of forskolin) Log EC50” value was −7.36 ± 0.05 on human α1A‐adrenoceptor [11] (CHO‐α1A cells, 10 μM forskolin) and −7.31 ± 0.11 at human α1B‐adrenoceptor [15]. Besides, the “ERK1/2‐phosphorylation % PDBu” value in [2] is on record as “No response”; at human α1B‐adrenoceptor [4] it was 32.8 ± 6.9%; on human α1A‐adrenoceptor [7], 84.5 ± 4.9%. Also, the entries for the “Intracellular calcium release % ionomycin” value (on human α1B‐adrenoceptor [3]; in [8]; on human α1A‐adrenoceptor [10]) were 33.7 ± 2.4%, “No response” and 52.0 ± 2.8%, respectively. Moreover, the entries for the “Intracellular calcium release Log EC50” value (on human α1B‐adrenoceptor [3]; in test [8]; at human α1A‐adrenoceptor [10]) were −7.79 ± 0.05, “No response” and −8.70 ± 0.09, respectively. Moreover, the “Log KD α1A, ^3H‐prazosin whole cell binding” value on human α1A‐adrenoceptor [12] is on record as −6.23 ± 0.03. Also, the “Log KD α1B, ^3H‐prazosin whole cell binding” value on human α1B‐adrenoceptor [13] is on record as −5.17 ± 0.06. In addition, the “Log KD, ^3H‐prazosin binding” value at human α1B‐adrenoceptor [13] is −5.17. In test [14], the “3H‐prazosin binding Log KD” value was −5.39. For the same compound, in test [14], the “Log KD α1D, ^3H‐prazosin whole cell binding” value is reported as −5.39 ± 0.16.

Broadly, the pEC50 is the negative decadic logarithm of the EC50, by convention in mol/L. The pKd is the negative decadic logarithm of the Kd, by convention in mol/L. Low values mean a high Kd, high ones a low Kd.

(Values after article PMC8343220, “The selectivity of α‐adrenoceptor agonists for the human α1A, α1B, and α1D‐adrenoceptors” (Pharmacology Research & Perspectives, 2021).)
